In brackets after ≈: the same amount, converted by molar mass. Where two headings read alike, the source gives them in different places.
How the values were obtained:
Assay type in all cases: cell-based
S. aureus = test: Broth dilution MIC determination (CLSI) against S. aureus strains; details: Staphylococcus aureus
How it was run: (§1)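 Following CLSI procedures, broth dilution is used to find the MIC for each strain. Controls: azithromycin and solithromycin.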

E. coli = test: Broth dilution MIC determination (CLSI) against E. coli strains; details: Escherichia coli
How it was run: as §1

H. influenzae = test: Broth dilution MIC determination (CLSI) against H. influenzae strains; details: Haemophilus influenzae
From the text: Minimum inhibitory concentrations (MICs) for macrolides described herein have been determined for unique strains of S. aureus, S. pneumoniae, S. pyogenes, E. faecalis, E. coli, A. baumannii, K. pneumoniae, P. aeruginosa, and H. influenzae, including several multidrug-resistant strains, with a special focus on macrolide resistant mechanisms. Azithromycin and solithromycin were included as control compounds. CLSI standard procedures for broth dilution MIC determination were used. Data for exemplary compounds described herein is shown in Tables M1-M7 and in Tables N1-N4.

E. faecalis = test: Broth dilution MIC determination (CLSI) against E. faecalis strains; details: Enterococcus faecalis
How it was run: as §1

A. baumannii = test: Broth dilution MIC determination (CLSI) against A. baumannii strains; details: Acinetobacter baumannii
How it was run: as §1

S. pyogenes = test: Broth dilution MIC determination (CLSI) against S. pyogenes strains; details: Streptococcus pyogenes
How it was run: as §1

P. aeruginosa = test: Broth dilution MIC determination (CLSI) against P. aeruginosa strains
How it was run: as §1

S. pneumoniae = test: Broth dilution MIC determination (CLSI) against S. pneumoniae strains; details: Streptococcus pneumoniae
How it was run: as §1

K. pneumoniae = test: Broth dilution MIC determination (CLSI) against K. pneumoniae strains; details: Klebsiella pneumoniae
How it was run: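 Azithromycin and solithromycin served as controls; MICs were obtained by standard CLSI broth dilution on a strain panel including multidrug-resistant and macrolide-resistant isolates.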

[1] = read-out: MIC S. aureus erm A genotype
[2] = ATCC25922, ATCC25922, read-out: MIC E. coli ATCC25922
[3] = read-out: MIC E. coli NDM-1, NDM-1
[4] = ATCC49619, ATCC49619, read-out: MIC S. pneumoniae ATCC49619
[5] = read-out: MIC S. pneumoniae mef A genotype, mef A genotype
[6] = read-out: MIC S. pneumoniae mef A genotype, mef A genotype, first of two such columns (c3)
[7] = ATCC29213, ATCC29213, read-out: MIC S. aureus ATCC29213
[8] = MRSA / USA100, MRSA: USA100, read-out: MIC S. aureus MRSA: USA100
[9] = MRSA / USA300, MRSA: USA300, read-out: MIC S. aureus MRSA: USA300
[10] = USA600, USA600, GISA, read-out: MIC S. aureus USA600, GISA
[11] = ATCC49247, ATCC49247, read-out: MIC H. influenzae ATCC49247
[12] = erythro > 4, azithro 1, read-out: MIC H. influenzae erythro > 4, azithro 1
[13] = ATCC29212, ATCC29212, read-out: MIC E. faecalis ATCC29212
[14] = Vancomycin-resistant, read-out: MIC E. faecalis Vancomycin-resistant
[15] = ATCC19606, ATCC19606, read-out: MIC A. baumannii ATCC19606
[16] = imipenem-resistant, read-out: MIC A. baumannii imipenem-resistant
[17] = ATCC19615, ATCC19615, read-out: MIC S. pyogenes ATCC19615
[18] = macrolide-resistant, read-out: MIC S. pyogenes macrolide-resistant
[19] = Pseudomonas aeruginosa, ATCC27853; read-out: MIC P. aeruginosa ATCC27853
[20] = erm B + mef A genotype, read-out: MIC S. pneumoniae erm B + mef A genotype
[21] = erm B + tet(M, O) genotype, read-out: MIC S. pneumoniae erm B + tet(M, O) genotype
[22] = ATCC10031, ATCC10031, read-out: MIC K. pneumoniae ATCC10031
[23] = KPC-2, read-out: MIC K. pneumoniae KPC-2

| SMILES | MIC (S. aureus; [1]) | MIC (E. coli; [2]) | MIC (E. coli; [3]) | MIC (S. pneumoniae; [4]) | MIC (S. pneumoniae; [5]) | MIC (S. pneumoniae; [6]) | MIC (S. aureus; [7]) | MIC (S. aureus; [8]) | MIC (S. aureus; [9]) | MIC (S. aureus; [10]) | MIC (H. influenzae; [11]) | MIC (H. influenzae; [12]) | MIC (E. faecalis; [13]) | MIC (E. faecalis; [14]) | MIC (A. baumannii; [15]) | MIC (A. baumannii; [16]) | MIC (S. pyogenes; [17]) | MIC (S. pyogenes; [18]) | MIC (P. aeruginosa; [19]) | MIC (S. pneumoniae; [20]) | other results |
| --- | --- | --- | --- | --- | --- | --- | --- | --- | --- | --- | --- | --- | --- | --- | --- | --- | --- | --- | --- | --- | --- |
| CC[C@H]1OC(=O)[C@H](C)C(=O)[C@H](C)[C@@H](O[C@@H]2OC(CNC=N)CC(N(C)C)C2O)[C@](C)(OC)C[C@@H](C)CN[C@H](C)[C@H]2N(CCCCn3cc(-c4cccc(N)c4)nn3)C(=O)O[C@]12C (stereo partly drawn) [FSM-21861] | > 32 µg/mL | > 32 µg/mL | > 32 µg/mL | 0.5 µg/mL (≈ 0.575 µM) | 8 µg/mL (≈ 9.19 µM) | 4 µg/mL (≈ 4.6 µM) | – | – | – | – | – | – | – | – | – | – | – | – | – | – | MIC (S. aureus; ATCC29213, read-out: MIC S. aureus ATCC29213): > 32 µg/mL; MIC (S. aureus; MRSA / USA100, read-out: MIC S. aureus MRSA: USA100): > 32 µg/mL; MIC (S. aureus; MRSA / USA300, read-out: MIC S. aureus MRSA: USA300): > 32 µg/mL; MIC (S. aureus; USA600, read-out: MIC S. aureus USA600, GISA): > 32 µg/mL; MIC (H. influenzae; ATCC49247, read-out: MIC H. influenzae ATCC49247): 32 µg/mL (≈ 36.8 µM); MIC (H. influenzae; read-out: MIC H. influenzae erythro > 4, azithro 1): 32 µg/mL (≈ 36.8 µM); MIC (E. faecalis; ATCC29212, read-out: MIC E. faecalis ATCC29212): 4 µg/mL (≈ 4.6 µM); MIC (E. faecalis; read-out: MIC E. faecalis Vancomycin-resistant): > 32 µg/mL; MIC (A. baumannii; ATCC19606, read-out: MIC A. baumannii ATCC19606): > 32 µg/mL; MIC (A. baumannii; read-out: MIC A. baumannii imipenem-resistant): > 32 µg/mL; MIC (S. pyogenes; ATCC19615, read-out: MIC S. pyogenes ATCC19615): 0.5 µg/mL (≈ 0.575 µM); MIC (S. pyogenes; read-out: MIC S. pyogenes macrolide-resistant): 8 µg/mL (≈ 9.19 µM); MIC (P. aeruginosa; Pseudomonas aeruginosa, ATCC27853, read-out: MIC P. aeruginosa ATCC27853): > 32 µg/mL; MIC (S. pneumoniae; read-out: MIC S. pneumoniae erm B + mef A genotype, erm B + mef A genotype): 32 µg/mL; MIC (S. pneumoniae; read-out: MIC S. pneumoniae erm B + tet(M, O) genotype, erm B + tet(M, O) genotype): 0.25 µg/mL; MIC (K. pneumoniae; ATCC10031, read-out: MIC K. pneumoniae ATCC10031): 16 µg/mL (≈ 18.4 µM); MIC (K. pneumoniae; read-out: MIC K. pneumoniae KPC-2): > 32 µg/mL |
| CC[C@H]1OC(=O)[C@H](C)C(=O)[C@H](C)[C@@H](O[C@@H]2OC(CNS(=O)(=O)c3cccnc3)CC(N(C)C)C2O)[C@](C)(OC)C[C@@H](C)CN[C@H](C)[C@H]2N(CCCCn3cc(-c4cccc(N)c4)nn3)C(=O)O[C@]12C (stereo partly drawn) [FSM-21876] | > 32 µg/mL | 32 µg/mL (≈ 32.5 µM) | > 32 µg/mL | 0.125 µg/mL (≈ 0.127 µM) | 16 µg/mL (≈ 16.3 µM) | 4 µg/mL (≈ 4.06 µM) | 16 µg/mL (≈ 16.3 µM) | > 32 µg/mL | > 32 µg/mL | > 32 µg/mL | 4 µg/mL (≈ 4.06 µM) | 16 µg/mL (≈ 16.3 µM) | 2 µg/mL (≈ 2.03 µM) | > 32 µg/mL | > 32 µg/mL | 32 µg/mL (≈ 32.5 µM) | 0.0625 µg/mL (≈ 0.0635 µM) | 2 µg/mL (≈ 2.03 µM) | > 32 µg/mL | 8 µg/mL | MIC (S. pneumoniae; [21]): 0.0313 µg/mL; MIC (K. pneumoniae; [22]): 16 µg/mL (≈ 16.3 µM); MIC (K. pneumoniae; [23]): 32 µg/mL (≈ 32.5 µM) |
| CC[C@H]1OC(=O)[C@H](C)C(=O)[C@H](C)[C@@H](O[C@@H]2OC(CN(CCN)CCN)CC(N(C)C)C2O)[C@](C)(OC)C[C@@H](C)CN[C@H](C)[C@H]2N(CCCCn3cc(-c4cccc(N)c4)nn3)C(=O)O[C@]12C (stereo partly drawn) [FSM-21877] | > 32 µg/mL | > 32 µg/mL | 32 µg/mL (≈ 34.4 µM) | 1 µg/mL (≈ 1.08 µM) | 16 µg/mL (≈ 17.2 µM) | 8 µg/mL (≈ 8.61 µM) | > 32 µg/mL | > 32 µg/mL | > 32 µg/mL | > 32 µg/mL | 32 µg/mL (≈ 34.4 µM) | 32 µg/mL (≈ 34.4 µM) | 8 µg/mL (≈ 8.61 µM) | > 32 µg/mL | > 32 µg/mL | > 32 µg/mL | 0.5 µg/mL (≈ 0.538 µM) | 16 µg/mL (≈ 17.2 µM) | > 32 µg/mL | 32 µg/mL | MIC (S. pneumoniae; [21]): 0.5 µg/mL; MIC (K. pneumoniae; [22]): 16 µg/mL (≈ 17.2 µM); MIC (K. pneumoniae; [23]): 32 µg/mL (≈ 34.4 µM) |

From patent publication US11535643B2, “Macrolides with modified desosamine sugars and uses thereof” (President and Fellows of Harvard College, priority 2015, dated 2022)
